Assays:
[1] = biological target: T1, ALK2 R206H (GST-tagged mutant ALK2) (Homo sapiens, UniProt Q04771, R206H); assay: ALK binding assay (LANTHASCREEN TR-FRET competitive binding, displacement of Kinase Tracer 178); details: ALK2 R206H, LANTHASCREEN TR-FRET competitive binding; read-out: Binding Assay (IC50)
T1 construct: purchased Carna Bioscience or ThermoFisher 09-148 or PV6232
T1 sequence (Q04771 21-509 R206H): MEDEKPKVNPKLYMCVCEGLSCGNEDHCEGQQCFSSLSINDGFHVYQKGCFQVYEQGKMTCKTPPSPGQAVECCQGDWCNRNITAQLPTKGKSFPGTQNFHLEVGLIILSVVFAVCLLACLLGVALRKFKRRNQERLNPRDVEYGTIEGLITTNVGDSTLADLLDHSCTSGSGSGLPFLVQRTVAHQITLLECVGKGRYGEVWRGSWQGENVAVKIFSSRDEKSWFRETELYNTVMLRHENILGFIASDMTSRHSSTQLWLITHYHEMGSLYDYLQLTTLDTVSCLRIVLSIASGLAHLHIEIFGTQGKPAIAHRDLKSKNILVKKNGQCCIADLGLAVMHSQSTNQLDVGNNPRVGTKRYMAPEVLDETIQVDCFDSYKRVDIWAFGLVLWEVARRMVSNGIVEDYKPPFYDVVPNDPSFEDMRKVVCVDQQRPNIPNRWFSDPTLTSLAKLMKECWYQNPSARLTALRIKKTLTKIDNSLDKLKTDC

human ALK2 R206H = biological target: T2, human ALK2 R206H (Homo sapiens, UniProt Q04771, R206H); assay: Cell-based ALK2-R206H cell activity assay (Smad1-Ser463/Ser465 phosphorylation by AlphaLISA in HEK293-ALK2-R206H cells); details: read-out: Cell Line (Cell Assay IC50)
T2 construct: expressed in transfected cells; host or cells: HEK293 (ATCC CRL1573), lentivirus transduction, blasticidin selection
T2 sequence (Q04771 21-509 R206H): T1 sequence (Q04771 21-509 R206H)
Protocol: A HEK293 (ATCC, Cat^# CRL1573) based stable cell line expressing human ALK2 R206H cDNA (synthesized by GeneScript, Piscataway, N.J.) and a FLAG tag at the C-terminus was generated by lentivirus transduction and subsequent blasticidin (Life Technologies, Cat^#-A1113902) selection at 10 μg/ml for >2 wks. This cell line was named HEK293-ALK2-R206H.
Test compounds were first diluted to 4 mM or 0.4 mM and then serially diluted 3-fold into 10 different concentrations using DMSO. […] Two μl of the diluted compounds were then dispensed into the HEK293-ALK2-R206H cell-containing wells of the microplates in duplicates. In this way, each compound was tested in 10 doses (3-fold serial dilution with the top concentration being 10 μM or 1 μM). Liquid handling was achieved using a Bravo Automated Liquid Handling Platform (Agilent Technologies). DMSO without compound was used as a negative control. The positive control was 1 μM LDN193189, a known bone morphogenetic protein (BMP inhibitor).
The 10-point dose response curve was used to calculate the IC50 values.
Blank values in the table indicate that the particular compound was not tested in this assay.

SMILES | IC50 [1] [nM] | IC50 (human ALK2 R206H) [nM]
NC1CCN(c2ccc(-c3cc4c(N5CCN(C(=O)C6CC6)CC5)ccnn4c3)cc2)CC1 [Compound 158] | < 10 | 100 to 500
O=C(C1CC1)N1CCN(c2ccnn3cc(-c4ccc(OC5CCCNC5)cc4)cc23)CC1 (centres unmarked) [Compound 159] | < 10 | < 100
O=C(C1CC1)N1CCN(c2ccnn3cc(-c4ccc(OC5CCNCC5)cc4)cc23)CC1 [Compound 160] | < 10 | 100 to 500
CCN1CC(O)(c2ccc(-c3cc4c(N5CCN(C(=O)C6CC6)CC5)ccnn4c3)cc2)C1 [Compound 161] | < 10 | < 100
C[C@@H]1CNC[C@H](c2ccc(-c3cc4c(N5CCN(C(=O)C6CC6)CC5)ccnn4c3)cc2)O1 [Compound 164] | < 10 | 100 to 500
CCN1CC(Oc2ccc(-c3cc4c(N5CCN(C(=O)C6CC6)CC5)ccnn4c3)cc2)C1 [Compound 167] | < 10 | < 100
C[C@H]1CNC[C@H](c2ccc(-c3cc4c(N5CCN(C(=O)C6CC6)CC5)ccnn4c3)cc2)O1 [Compound 169] | < 10 | 100 to 500
C[C@@H]1CN(c2ccnn3cc(-c4ccc(N5CCNCC5)nc4)cc23)CCN1C(=O)C1CC1 [Compound 170] | 10 to 50 | 100 to 500
CCC(=O)N1CCN(c2ccnn3cc(-c4ccc(N5CCN(CC)CC5)cc4)cc23)CC1 [Compound 173] | 10 to 50 | > 500
O=C(C1CC1)N1CCN(c2ccnn3cc(-c4ccc(C5CCNCC5F)cc4)cc23)CC1 (centres unmarked) [Compound 174] | < 10 | 100 to 500
CCOC(=O)N1CCN(c2ccnn3cc(-c4ccc([C@H]5CCN(CC)C5)cc4)cc23)CC1 [Compound 181] | < 10 | < 100
CCOC(=O)N1CCN(c2ccnn3cc(-c4ccc(C5CN(C(C)C)C5)cc4)cc23)CC1 [Compound 182] | < 10 | < 100
O=C([C@H]1C[C@@H]1F)N1CCN(c2ccnn3cc(-c4ccc(N5CCNCC5)cc4)cc23)CC1 [Compound 184] | < 10 | < 100
O=C([C@H]1C[C@H]1F)N1CCN(c2ccnn3cc(-c4ccc(N5CCNCC5)cc4)cc23)CC1 [Compound 185] | < 10 | < 100
O=C([C@@H]1C[C@H]1F)N1CCN(c2ccnn3cc(-c4ccc(N5CCNCC5)nc4)cc23)CC1 [Compound 186] | < 10 | 100 to 500
CC(C)N1CCc2cc(-c3cc4c(N5CCN(C(=O)C6CC6)CC5)ccnn4c3)sc2C1 [Compound 187] | < 10 | < 100
CC(C)N1CCc2nc(-c3cc4c(N5CCN(C(=O)C6CC6)CC5)ccnn4c3)sc2C1 [Compound 191] | < 10 | < 100

The remaining lines, values ahead:

IC50 [1] [nM] | IC50 (human ALK2 R206H) [nM] | SMILES
< 10 | < 100 | O=C(C1CC1)N1CCN(c2ccnn3cc(-c4ccc(O[C@@H]5CCCNC5)cc4)cc23)CC1 [Compound 162]
< 10 | < 100 | O=C(C1CC1)N1CCN(c2ccnn3cc(-c4ccc(O[C@H]5CCCNC5)cc4)cc23)CC1 [Compound 163]
< 10 | 100 to 500 | O=C(C1CC1)N1CCN(c2ccnn3cc(-c4ccc(C5(O)CCOCC5)cc4)cc23)CC1 [Compound 172]
< 10 | < 100 | O=C(C1CC1)N1CCN(c2ccnn3cc(-c4ccc(C5(F)CCCNC5)cc4)cc23)CC1 (centres unmarked) [Compound 177]
< 10 | < 100 | O=C(C1CC1)N1CCN(c2ccnn3cc(-c4ccc([C@@]5(F)CCCNC5)cc4)cc23)CC1 [Compound 178]
< 10 | < 100 | O=C(C1CC1)N1CCN(c2ccnn3cc(-c4ccc([C@]5(F)CCCNC5)cc4)cc23)CC1 [Compound 179]
< 10 | < 100 | CCNC(=O)N1CCN(c2ccnn3cc(-c4ccc([C@]5(F)CCCNC5)cc4)cc23)CC1 [Compound 188]
< 10 | < 100 | CCNC(=O)N1CCN(c2ccnn3cc(-c4ccc([C@@]5(F)CCCNC5)cc4)cc23)CC1 [Compound 189]

From patent publication US10233186B2, “Inhibitors of activin receptor-like kinase” (BLUEPRINT MEDICINES CORPORATION, priority 2016, dated 2019)
